This passage reports relative viability results from the supplement of paper PMC10307832.

Holding throughout (assay): relative viability (nuclei count vs DMSO), 5 days (fraction); higher = more cells survive
Compound in the assay “Linifanib + Trametinib”: Cc1ccc(F)c(NC(=O)Nc2ccc(-c3cccc4[nH]nc(N)c34)cc2)c1 [Linifanib] + CC(=O)Nc1cccc(-n2c(=O)n(C3CC3)c(=O)c3c(Nc4ccc(I)cc4F)n(C)c(=O)c(C)c32)c1 [Trametinib] (partner 0.02 µM)
In short, it runs like this:
(§1)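 Five library-drug doses in √10 steps were combined with a fixed anchor-drug dose, or a single drug was given alone, by pin tool to lung cancer cell lines in 1536-well plates the day after seeding. Nuclei were stained and counted after 5 days. Relative viability is the nuclei count in treated wells over that in vehicle wells, taken as the median of duplicate plates.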

Compound in the assay “Linifanib + Bortezomib”: Cc1ccc(F)c(NC(=O)Nc2ccc(-c3cccc4[nH]nc(N)c34)cc2)c1 [Linifanib] + CC(C)C[C@H](NC(=O)[C@H](Cc1ccccc1)NC(=O)c1cnccn1)B(O)O [Bortezomib] (partner 0.002 µM)
In short, it runs like this: as §1

Compound in the assay “Linifanib + Foretinib”: Cc1ccc(F)c(NC(=O)Nc2ccc(-c3cccc4[nH]nc(N)c34)cc2)c1 [Linifanib] + COc1cc2c(Oc3ccc(NC(=O)C4(C(=O)Nc5ccc(F)cc5)CC4)cc3F)ccnc2cc1OCCCN1CCOCC1 [Foretinib] (partner 0.25 µM)
In short, it runs like this:
as §1

Compound in the assay “Linifanib + OSI-027”: Cc1ccc(F)c(NC(=O)Nc2ccc(-c3cccc4[nH]nc(N)c34)cc2)c1 [Linifanib] + COc1cccc2cc(-c3nc([C@H]4CC[C@H](C(=O)O)CC4)n4ncnc(N)c34)[nH]c12 [OSI-027] (partner 0.5 µM)
In outline: as §1

Compound in the assay “Linifanib + Lapatinib”: Cc1ccc(F)c(NC(=O)Nc2ccc(-c3cccc4[nH]nc(N)c34)cc2)c1 [Linifanib] + CS(=O)(=O)CCNCc1ccc(-c2ccc3ncnc(Nc4ccc(OCc5cccc(F)c5)c(Cl)c4)c3c2)o1 [Lapatinib] (partner 2 µM)
In short, it runs like this:
as §1

Compound in the assay “Linifanib + Alpelisib”: Cc1ccc(F)c(NC(=O)Nc2ccc(-c3cccc4[nH]nc(N)c34)cc2)c1 [Linifanib] + Cc1nc(NC(=O)N2CCC[C@H]2C(N)=O)sc1-c1ccnc(C(C)(C)C(F)(F)F)c1 [Alpelisib] (partner 2 µM)
In outline: as §1

Regarding NCI-H1734, the relative viability worked out at 0.618 with Linifanib + Trametinib (first compound 0.03162 µM); 0.693 in the assay with Linifanib + Trametinib (first compound 0.1 µM); 0.648 with Linifanib + Trametinib (first compound 0.3162 µM); 1.04 with Linifanib + Bortezomib (first compound 0.03162 µM); 1.15 with Linifanib + Bortezomib (first compound 0.1 µM); 0.93 with Linifanib + Bortezomib (first compound 0.3162 µM). Also, the relative viability was 0.87 with Linifanib + Foretinib (first compound 0.03162 µM); 0.989 in the assay with Linifanib + Foretinib (first compound 0.1 µM); 0.856 with Linifanib + Foretinib (first compound 0.3162 µM); 0.597 in the assay with Linifanib + OSI-027 (first compound 0.03162 µM); 0.618 in the assay with Linifanib + OSI-027 (first compound 0.1 µM); 0.53 in the assay with Linifanib + OSI-027 (first compound 0.3162 µM). The relative viability with Linifanib + Lapatinib (first compound 0.03162 µM) is 1.04; with Linifanib + Lapatinib (first compound 0.1 µM) it was 1.19; in the assay with Linifanib + Lapatinib (first compound 0.3162 µM), 1.01; with Linifanib + Alpelisib (first compound 0.03162 µM) it was 0.748; with Linifanib + Alpelisib (first compound 0.1 µM), 0.773; with Linifanib + Alpelisib (first compound 0.3162 µM) it was 0.679.
